Article PMC12307812 (Nature Communications, 2025)
Read-outs that look alike come from different tables or passages of the source.

Tests used:
[1] = system: pseudovirus bearing S protein of HCoV-NL63; assay: organism not typed; type: cell-based
[2] = system: pseudovirus bearing S protein of SARS-CoV-2 lineage BA.2.86; assay: organism not typed; type: cell-based
[3] = system: pseudovirus bearing VSV-G; assay: organism not typed; type: cell-based; conditions: Calu-3
[4] = system: pseudovirus bearing S protein of SARS-CoV-2 lineage EG.5.1; assay: organism not typed; type: cell-based; conditions: for IC50: Calu-3 cells
[5] = system: pseudovirus bearing S protein of SARS-CoV-2 lineage B.1.617.2; assay: organism not typed; type: cell-based
[6] = target: T1, Recombinant Human TMPRSS2 (Homo sapiens, UniProt O15393); assay: TMPRSS2 biochemical assay (Boc-Gln-Ala-Arg-AMC fluorogenic substrate)
T1 construct: human TMPRSS2 residues 106492, N-terminal 6x His-tag; 6x His-tag (N); purchased Cusabio CSB-YP023924HU; host or cells: yeast
T1 sequence (O15393 106-492 limits assumed): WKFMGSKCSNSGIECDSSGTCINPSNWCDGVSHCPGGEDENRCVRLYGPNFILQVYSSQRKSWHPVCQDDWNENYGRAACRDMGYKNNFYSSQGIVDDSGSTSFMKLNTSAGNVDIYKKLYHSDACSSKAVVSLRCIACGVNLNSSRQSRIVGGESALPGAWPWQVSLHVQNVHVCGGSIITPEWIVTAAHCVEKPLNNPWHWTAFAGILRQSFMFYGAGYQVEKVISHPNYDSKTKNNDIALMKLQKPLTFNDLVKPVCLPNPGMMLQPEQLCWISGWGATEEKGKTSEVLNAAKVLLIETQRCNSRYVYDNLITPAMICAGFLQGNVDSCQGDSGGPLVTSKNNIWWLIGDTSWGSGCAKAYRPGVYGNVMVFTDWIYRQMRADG
Protocol: Inhibitors of TMPRSS2 were tested using a high throughput activity assay. […] TMPRSS2 (5 µl, 0.018 mg/ml) in assay buffer (50 mM Tris pH 8, 150 mM NaCl, 0.01% Tween20) was dispensed to that, using a BioRAPTR (Beckman Coulter), for a total assay volume of 5 µl.
After incubation at room temperature for 1 h, fluorescence was measured. […] Raw plate reads for each titration point were normalized relative to a positive control containing no enzyme (0% activity, full inhibition) and a negative control containing DMSO-only wells (100% activity, basal activity). Data normalization was performed using GraphPad Prism (GraphPad Software, San Diego, CA).
We employed the curve fitting algorithm available in the SciPy package (version 1.10.1)[61] to derive the Hill slope and the IC50 value, along with their corresponding error estimates.

[7] = system: pseudovirus bearing S protein of MERS-CoV; assay: organism not typed; type: cell-based
[8] = system: pseudovirus bearing S protein of SARS-CoV-1; assay: organism not typed; type: cell-based
[9] = system: vesicular stomatitis virus (VSV); type: cell-based; conditions: VSV
[10] = system: pseudovirus bearing S protein of SARS-CoV-2 lineage B.1; assay: organism not typed; type: cell-based
[11] = Calu-3, read-out: mean inhibition

## CN(C)C(=O)COC(=O)Cc1ccc(OC(=O)c2ccc(NC(=N)N)cc2)cc1 [camostat]
[1]; Calu-3, read-out: IC50 estimate, pseudovirus cell entry NL63-S
  IC50: 806 ± 263 nM
[1]; [11]
  inhibition at 0.00025 µM: -3.23%
  inhibition at 0.0025 µM: 5.92%
  inhibition at 0.025 µM: 15.4%
  inhibition at 0.25 µM: 41.9%
  inhibition at 2.5 µM: 66.4%
  inhibition at 25 µM: 73.2%
[2]; Calu-3, BA.2.86, concentration 0.25 nM
  inhibition at 0.00025 µM: 2.77%
[2]; Calu-3, BA.2.86, concentration 2.5 nM
  inhibition at 0.0025 µM: 3.7%
[2]; Calu-3, BA.2.86, concentration 25 nM
  inhibition at 0.025 µM: 24%
[2]; Calu-3, BA.2.86, concentration 250 nM
  inhibition at 0.25 µM: 61.2%
[2]; Calu-3, BA.2.86, concentration 2500 nM
  inhibition at 2.5 µM: 85.5%
[2]; Calu-3, BA.2.86, concentration 25000 nM
  inhibition at 25 µM: 85.8%
[2]; Calu-3 cells, read-out: IC50, pseudovirus cell entry BA.2.86
  IC50: 148 nM
[3]; concentration 0.25 nM
  inhibition at 0.00025 µM: 0.261%
[3]; concentration 2.5 nM
  inhibition at 0.0025 µM: -1.2%
[3]; concentration 25 nM
  inhibition at 0.025 µM: -0.393%
[3]; concentration 250 nM
  inhibition at 0.25 µM: -0.191%
[3]; concentration 2500 nM
  inhibition at 2.5 µM: -0.407%
[3]; concentration 25000 nM
  inhibition at 25 µM: -1.53%
[4]; Calu-3, EG.5.1, concentration 0.25 nM
  inhibition at 0.00025 µM: 3.95%
[4]; Calu-3, EG.5.1, concentration 2.5 nM
  inhibition at 0.0025 µM: -5.66%
[4]; Calu-3, EG.5.1, concentration 25 nM
  inhibition at 0.025 µM: 19.1%
[4]; Calu-3, EG.5.1, concentration 250 nM
  inhibition at 0.25 µM: 34.3%
[4]; Calu-3, EG.5.1, concentration 2500 nM
  inhibition at 2.5 µM: 43.1%
[4]; Calu-3, EG.5.1, concentration 25000 nM
  inhibition at 25 µM: 52.7%
[4]; Fig. 4g, read-out: IC50 estimate, pseudovirus cell entry EG.5.1
  IC50: 8560 ± 6540 nM
[4]; read-out: IC50, EG.5.1-S protein-driven Calu-3 cell entry
  IC50: 8560 nM
[5]; Calu-3, B.1.617.2, concentration 0.25 nM
  inhibition at 0.00025 µM: -0.882%
[5]; Calu-3, B.1.617.2, concentration 2.5 nM
  inhibition at 0.0025 µM: 3.07%
[5]; Calu-3, B.1.617.2, concentration 25 nM
  inhibition at 0.025 µM: 10.5%
[5]; Calu-3, B.1.617.2, concentration 250 nM
  inhibition at 0.25 µM: 57.9%
[5]; Calu-3, B.1.617.2, concentration 2500 nM
  inhibition at 2.5 µM: 90.4%
[5]; Calu-3, B.1.617.2, concentration 25000 nM
  inhibition at 25 µM: 96.4%
[5]; Calu-3 cells, read-out: IC50, pseudovirus cell entry B.1.617.2
  IC50: 191 nM
[6]; concentration 0.677404 nM
  inhibition at 0.000677404 µM: 13.8%
[6]; concentration 2.03221 nM
  inhibition at 0.00203221 µM: 36.1%
[6]; concentration 6.09663 nM
  inhibition at 0.00609663 µM: 68.3%
[6]; concentration 18.2899 nM
  inhibition at 0.0182899 µM: 90.6%
[6]; concentration 54.8697 nM
  inhibition at 0.0548697 µM: 102%
[6]; concentration 164.609 nM
  inhibition at 0.164609 µM: 103%
[6]; concentration 493.827 nM
  inhibition at 0.493827 µM: 105%
[6]; concentration 1481.48 nM
  inhibition at 1.48148 µM: 105%
[6]; concentration 4444.44 nM
  inhibition at 4.44444 µM: 104%
[6]; concentration 13333.3 nM
  inhibition at 13.3333 µM: 104%
[6]; concentration 40000 nM
  inhibition at 40 µM: 104%
[7]; Calu-3, read-out: IC50 estimate, pseudovirus cell entry MERS-S
  IC50: 189 ± 12.3 nM
[7]; Calu-3, concentration 0.25 nM
  inhibition at 0.00025 µM: 0.136%
[7]; Calu-3, concentration 2.5 nM
  inhibition at 0.0025 µM: 2.04%
[7]; Calu-3, concentration 25 nM
  inhibition at 0.025 µM: 13.3%
[7]; Calu-3, concentration 250 nM
  inhibition at 0.25 µM: 57.4%
[7]; Calu-3, concentration 2500 nM
  inhibition at 2.5 µM: 89.2%
[7]; Calu-3, concentration 25000 nM
  inhibition at 25 µM: 95.7%
[8]; Calu-3, read-out: IC50 estimate, pseudovirus cell entry SARS-1-S
  IC50: 193 ± 70.4 nM
[8]; Calu-3, concentration 0.25 nM
  inhibition at 0.00025 µM: 3.15%
[8]; Calu-3, concentration 2.5 nM
  inhibition at 0.0025 µM: 5.85%
[8]; Calu-3, concentration 25 nM
  inhibition at 0.025 µM: 19.9%
[8]; Calu-3, concentration 250 nM
  inhibition at 0.25 µM: 63.5%
[8]; Calu-3, concentration 2500 nM
  inhibition at 2.5 µM: 76.2%
[8]; Calu-3, concentration 25000 nM
  inhibition at 25 µM: 83.2%
[9]; concentration 5 nM
  mean log10(PFU/ml): 9.003 log10(PFU/ml)
[9]; concentration 50 nM
  mean log10(PFU/ml): 8.994 log10(PFU/ml)
[9]; concentration 500 nM
  mean log10(PFU/ml): 9.01 log10(PFU/ml)
[9]; concentration 5000 nM
  mean log10(PFU/ml): 9.013 log10(PFU/ml)
[9]; concentration 50000 nM
  mean log10(PFU/ml): 8.989 log10(PFU/ml)
[10]; Calu-3, B.1, concentration 0.25 nM
  inhibition at 0.00025 µM: -1.94%
[10]; Calu-3, B.1, concentration 2.5 nM
  inhibition at 0.0025 µM: 3.06%
[10]; Calu-3, B.1, concentration 25 nM
  inhibition at 0.025 µM: 2.53%
[10]; Calu-3, B.1, concentration 250 nM
  inhibition at 0.25 µM: 60.8%
[10]; Calu-3, B.1, concentration 2500 nM
  inhibition at 2.5 µM: 89.4%
[10]; Calu-3, B.1, concentration 25000 nM
  inhibition at 25 µM: 96.6%
[10]; Calu-3 cells, read-out: IC50, pseudovirus cell entry B.1
  IC50: 190 nM
